Experimental data: ChEMBL document CHEMBL1201862, “PubChem BioAssay data set” (2004)
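Values below derive from 48-hour exposures of cells grown in 96-well plates, with endpoints linearly interpolated between the two concentrations bracketing the appropriate inhibition level. GI50: concentration for 50% inhibition of growth.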 Activity calls are given as the source filed them. No stated cut-off is given here; in the data, active = GI50 up to about 1.1 µM and inactive = higher.

What was measured:
Test in all cases: DTP human tumour cell line panel, 48 h
DMS-114 = tested on: DMS-114
MOLT-4 = tested on: MOLT-4
SK-MEL-28 = tested on: SK-MEL-28
COLO 205 = tested on: COLO 205
NCI-H226 = tested on: NCI-H226
LXFL 529 = tested on: LXFL 529
SF-295 = tested on: SF-295
SW-620 = tested on: SW-620
NCI-H522 = tested on: NCI-H522
RXF 631 = tested on: RXF 631
NCI-H460 = tested on: NCI-H460
U-251 = tested on: U-251
HL-60 = tested on: HL-60
NCI-H23 = tested on: NCI-H23
IGROV-1 = tested on: IGROV-1
UO-31 = tested on: UO-31
K562 = tested on: K562
RPMI-8226 = tested on: RPMI-8226
M19-MEL = tested on: M19-MEL
SK-MEL-2 = tested on: SK-MEL-2
UACC-62 = tested on: UACC-62
Malme-3M = tested on: Malme-3M
SF-268 = tested on: SF-268
LOX IMVI = tested on: LOX IMVI
TK-10 = tested on: TK-10
HCT-15 = tested on: HCT-15
SNB-19 = tested on: SNB-19
OVCAR-4 = tested on: OVCAR-4
SK-OV-3 = tested on: SK-OV-3
HOP-92 = tested on: HOP-92
KM-20L2 = tested on: KM-20L2
EKVX = tested on: EKVX
UACC-257 = tested on: UACC-257
DLD-1 = tested on: DLD-1
RXF 393 = tested on: RXF 393
CCRF-CEM = tested on: CCRF-CEM
SR = tested on: SR
SN12C = tested on: SN12C
HT-29 = tested on: HT-29
SK-MEL-5 = tested on: SK-MEL-5
SF-539 = tested on: SF-539
786-0 = tested on: 786-0
KM12 = tested on: KM12
HCT-116 = tested on: HCT-116
A549 = tested on: A549
CAKI-1 = tested on: CAKI-1
OVCAR-5 = tested on: OVCAR-5
DMS-273 = tested on: DMS-273
SNB-75 = tested on: SNB-75
HCC 2998 = tested on: HCC 2998
XF498 = tested on: XF498

O=C(O)c1nccnc1C(=O)O
GI50 (DMS-114): > 100 µM (inactive) | GI50 (MOLT-4): > 100 µM (inactive) | GI50 (SK-MEL-28): > 100 µM (inactive) | GI50 (COLO 205): > 100 µM (inactive) | GI50 (NCI-H226): > 100 µM (inactive) | GI50 (LXFL 529): > 100 µM (inactive) | GI50 (SF-295): > 100 µM (inactive) | GI50 (SW-620): > 100 µM (inactive) | GI50 (NCI-H522): > 100 µM (inactive) | GI50 (RXF 631): > 100 µM (inactive) | GI50 (NCI-H460): > 100 µM (inactive) | GI50 (U-251): > 100 µM (inactive) | GI50 (HL-60): > 100 µM (inactive) | GI50 (NCI-H23): > 100 µM (inactive) | GI50 (IGROV-1): > 100 µM (inactive) | GI50 (UO-31): > 100 µM (inactive) | GI50 (K562): > 100 µM (inactive) | GI50 (RPMI-8226): > 100 µM (inactive) | GI50 (M19-MEL): > 100 µM (inactive) | GI50 (SK-MEL-2): > 100 µM (inactive) | GI50 (UACC-62): > 100 µM (inactive) | GI50 (Malme-3M): > 100 µM (inactive) | GI50 (SF-268): > 100 µM (inactive) | GI50 (LOX IMVI): > 100 µM (inactive) | GI50 (TK-10): > 100 µM (inactive) | GI50 (HCT-15): > 100 µM | GI50 (SNB-19): > 100 µM (inactive) | GI50 (OVCAR-4): > 100 µM (inactive) | GI50 (SK-OV-3): > 100 µM (inactive) | GI50 (HOP-92): > 100 µM (inactive) | GI50 (KM-20L2): > 100 µM (inactive) | GI50 (EKVX): > 100 µM (inactive) | GI50 (UACC-257): > 100 µM (inactive) | GI50 (DLD-1): > 100 µM (inactive) | GI50 (RXF 393): > 100 µM (inactive) | GI50 (CCRF-CEM): > 100 µM (inactive) | GI50 (SR): > 100 µM (inactive) | GI50 (SN12C): > 100 µM (inactive) | GI50 (HT-29): > 100 µM (inactive) | GI50 (SK-MEL-5): > 100 µM (inactive) | GI50 (SF-539): > 100 µM (inactive) | GI50 (786-0): > 100 µM (inactive) | GI50 (KM12): > 100 µM (inactive) | GI50 (HCT-116): > 100 µM (inactive) | GI50 (A549): > 100 µM (inactive) | GI50 (CAKI-1): > 100 µM (inactive) | GI50 (OVCAR-5): > 100 µM (inactive) | GI50 (DMS-273): > 100 µM (inactive) | GI50 (SNB-75): > 100 µM (inactive) | GI50 (HCC 2998): > 100 µM (inactive) | GI50 (XF498): > 100 µM (inactive)
